Data reported in article PMC6877910, “Astrocyte-Targeted Transporter-Utilizing Derivatives of Ferulic Acid Can Have Multifunctional Effects Ameliorating Inflammation and Oxidative Stress in the Brain” (Oxidative Medicine and Cellular Longevity, 2019).
Read-outs that look alike come from different tables or passages of the source.

What was measured:
[1] = system: peroxidase activity of cyclooxygenases (COX); assay: Peroxidase activity of cyclooxygenases in cell lysates (fluorometric kit); type: biochemical; conditions: 100 μM; 30 min; assay does not differentiate COX from LOX
Protocol: A coupled oxidation-reduction fluorometric assay was used to assess the inhibitory effect of compounds (100 μM) together with positive controls on the peroxidase activity of cyclooxygenases (COX) (ab204699 Cyclooxygenase Activity Assay Kit, Abcam, Cambridge, UK). The method has been done and validated according to the manufacturer's protocol. Briefly, studied compounds (100 μM) and the reaction mixture were incubated with the cell lysates at room temperature and the reaction was initiated by adding arachidonic acid/NaOH solution. The fluorescence was read in a kinetic mode after every 15 seconds for 30 minutes by the EnVision plate reader (EnVision, PerkinElmer, Inc., Waltham, MA, USA) at λex 535 nm and λem 587 nm.

[2] = mouse brain in vivo; previous study; cited from earlier work
[3] = 5 h incubation in vitro; previous study; cited from earlier work
LAT1 = conditions: human breast adenocarcinoma cells (MCF-7); previously determined values; cited from earlier work
[4] = Intracellular unbound drug concentration ratio (Kp,uu) in astrocytes; type: in vitro ADME; conditions: C57BL/6J, mouse, read-out: Kp,uu (unbound intracellular : extracellular ratio)
Protocol: The unbound fraction of FA and its derivatives 1-2 was determined at 10 μM in cell homogenate by using a Rapid Equilibrium Dialysis (RED) device (Thermo Fisher Scientific, Inc., Waltham, MA, USA). Briefly, the cell homogenate was prepared from astrocyte cell suspension (10 × 10^6 cells/mL) in HBSS with a SoniPerp 150 Plus disintegrator (MSE Ltd., London, UK) for 2 s × 3. 100 μL of cell homogenate spiked with the studied compound was added to the reaction chamber, and 350 μL of HBSS buffer was added to the buffer chamber of the RED plate. The dialysis plate was incubated at 37°C for 4 h with shaking. […]
The drug concentration ratio in astrocytes (Kp) was determined at 0.01-1.0 μM concentrations by comparing the cellular uptake from the cell lysates (0.1 M NaOH) to the concentration detected from the surrounding buffer (HBSS) collected before cell lysing as described by Mateus et al.: (3) Kp=Acell/Vcell/Cmedium, where Acell is the amount of compound in the cell lysate (nmol), Vcell is the astrocyte cell volume (0.05810^−15 L/cell) for 10 × 10^4 cells/well, and Cmedium is the compound concentration in the surrounding buffer. The unbound drug concentration ratio (Kp,uu) was then calculated by multiplying the drug concentration ratio (Kp) by unbound drug fraction (fu,cell) as described by Mateus et al.: (4) Kp,uu=Kp×fu,cell.

[5] = system: LPS-induced lipid peroxidation in primary astrocytes; assay: LPS-induced lipid peroxidation (malondialdehyde formation) in primary astrocytes; type: cell-based, mouse; conditions: 50 μM compound with 0.1 μg/mL LPS, 24 h
Protocol: Primary astrocytes were seeded at the density of 2 × 10^5 cells/well onto collagen-coated 6-well plates. The cells were used for the experiments 2 days after seeding, and first, they were treated with 0.1 μg/mL lipopolysaccharide (LPS) in prewarmed HBSS buffer (250 μL) at 37°C for 24 h. The control cells were treated with prewarmed HBSS buffer only. The ability of compound to inhibit the oxidative stress was evaluated by adding FA (50 μM) or its derivatives 1-3 in prewarmed HBSS buffer (250 μL) together with LPS and incubating the cells at 37°C for 24 h. Tocopherol (vitamin E) was used as a positive control. […] The mixtures were then centrifuged at 10 000 × g for 10 min, and 50 μL of the supernatant was analyzed on a 96-well plate, each experiment as three technical replicates from three biological replicates. The fluorescence was read by the EnVision plate reader (EnVision, PerkinElmer, Inc., Waltham, MA, USA) at λex 532 nm and λem 553 nm. The amount of produced malondialdehyde (MDA) in each experiment was quantified from the standard curve; various amounts (1-800 μM) of MDA and thiobarbituric acid in water were incubated in a thermoshaker at 95°C for 1 h and analyzed simultaneously as duplicates with each studied batch. […] The results were analyzed as μmol of formed MDA per mg protein.

NF-κB = assay: Total amount of NF-κB p65 (ELISA) in cells; type: cell-based, mouse; conditions: 100 μM; 24-96 h incubation
Protocol: Enzyme-Linked Immunosorbent Assay (ELISA) kits were used (mTOR SimpleStep ELISA Kit and NFκB p65 Total SimpeStep ELISA Kit, Abcam, Cambridge, UK) to quantify mammalian (or mechanistic) target of rapamycin (mTOR) and transcription factor NF-κB amounts, respectively. […] The control wells were treated with the solvent only (0.5% DMSO). Cells were solubilized using the provided extraction buffer with the kit, incubated on ice for 20 minutes and centrifuged at 18 000 × g for 20 min at 4°C. The supernatants were stored at -80°C till the day of the analysis. Standards and samples were then analyzed following the manufacturer's protocol (ELISA sandwich method) and by reading the absorbance with the EnVision plate reader (EnVision, PerkinElmer, Inc., Waltham, MA, USA) at 450 nm. The results were analyzed as pmol of formed mTOR or NF-κB per mL.

[6] = cited from earlier work
[7] = Bioconversion in mouse brain S9 subcellular fraction; type: in vitro ADME

COc1cc(/C=C/C(=O)O)ccc1O [FA, trans-4-hydroxy-3-methoxycinnamic acid, reference compound]
Inhibition of peroxidase activity of COX enzymes [1]: inhibited the cellular peroxidase activity of COX enzymes

COc1cc(C=CC(=O)NCc2cccc(CC(N)C(=O)O)c2)ccc1O (stereo not drawn) [FA-derivative 1]
FA released in the brain [2]: did not release any FA | FA released / stability in mouse brain S9 subcellular fraction [3]: remained intact | IC50 (LAT1): 14.2 µM | Kp uu ([4]; lower concentrations (<0.1 μM)): 0.25 to 2.14

COc1cc(C=CC(=O)Nc2cccc(CC(N)C(=O)O)c2)ccc1O (stereo not drawn) [FA-derivative 2]
FA released in the brain [2]: less than 5% | IC50 (LAT1): 1.1 µM | MDA levels lower than in the control incubation [5]: approximately 12% | Kp uu ([4]; throughout the studied concentrations (0.01-1.0 μM)): 0.83 to 1.74 | Effect on total NF-κB levels (NF-κB): did not exert any effects

COc1cc(C=CC(=O)Oc2cccc(CC(N)C(=O)O)c2)ccc1O (stereo not drawn) [FA-derivative 3]
Bioconversion in human plasma ([6]; in vitro human data): rather insignificant | Human hepatic intrinsic clearance, times slower than in mouse ([6]; in vitro human data): 10 times | Stability in human plasma and liver S9 subcellular fraction, times more stable (than in mouse) ([6]; previous study): 10 times | Bioconversion in the presence of donepezil [7]: no bioconversion at all was observed | half-life [7]: ~3.58 h
